Experiments:
[1] = test system: RBL-2H3 cells; test: IgE-induced Beta-hexosaminidase secretion in RBL-2H3 cells; type: cell-based; conditions: DNP-BSA stimulation
Method: For the determination of IgE-induced Beta-hexosaminidase secretion, RBL-2H3 cells (SIBS) are seeded in 96 well plates at 4×10^4 cells per well and incubated in MEM media with 15% FBS and Glutamine ([…]) for 4 hours and sensitized with 0.5 ug/ml of SPE-7 overnight. Cells are washed 3 times with Tyrode's buffer and incubated in the presence or absence of various concentrations of the testing compound for 20 min at 37° C., 5% CO2. Cells are stimulated by adding 10 uL of DNP-BSA solution (150 ng/mL) to each well and incubating for 45 minutes at 37° C., 5% CO2. Then, 45 μL of the supernatant is taken and incubated with 100 μL of 1 mM 4-Nitrophenyl N-acetyl-β-D-glucosaminide (Sigma, Cat. No. N9376), which is diluted in 0.05 M citrate buffer (pH 4.5), for 1.5 hr at 37° C. The reactions are quenched by adding 185 μL of 0.05 M sodium carbonate buffer (pH 10.0). Plates are read at 405 nm on Multiskan (MK 3).

[2] = molecular target: Syk kinase (Homo sapiens, UniProt P43405); test: SYK Enzymatic Assay (Z-LYTE Tyr 2 peptide); type: biochemical; conditions: 8 concentrations 1 μM down to 0.0003 μM
Method: Syk kinase assay are performed in vitro using Kit-Tyr 2 Peptide (Invitrogen, Cat. No. PV3191) and in a 384-well assay plate. […] The 384-well assay plate (Corning, Cat. No. 3575) is mixed and incubated at room temperature for 1 hour. 10 μL of the Development Solution (prepared by diluting Development Reagent A (Cat. No. PV3297) to 1/32 with Development Buffer (Cat. No. PV3127)) is then added to each well, mixed and incubated at room temperature for another 1 hour. The reactions are then stopped by adding 10 μL of the Stop Reagent (Invitrogen, Cat. No. PV3094), and the plate is read with Wallac 1420 VICTOR^3 Multilabel Counter (PerkinElmer™) at 445 nm and 520 nm fluorescence. All compounds are tested at 8 concentrations (1 μM down to 0.0003 μM) using a 1:3 serial dilution scheme.

[3] = Rattus norvegicus, RBL-2H3, IgE-induced Beta-hexosaminidase secretion
[4] = IgE-induced Beta-hexosaminidase secretion

IC50 [1, 3] [nM] | IC50 [2] [nM] | IC50 [1, 4] [nM] | SMILES
52 | 72 | – | CN(C)c1ccc(-c2cc3nccnc3c(OC[C@@H]3CNC(=O)C3)n2)cc1 [Compound 206, (S)-4-(((7-(4-(dimethylamino)phenyl)pyrido[3,4-b]pyrazin-5-yl)oxy)methyl)pyrrolidin-2-one]
122 | 49 | – | CN1CCc2cc(-c3cc4nccnc4c(OC[C@@H]4CN(C(N)=O)CCO4)n3)ccc21 [Compound 216]
381 | 31 | – | CC(C)(C#N)c1ccc(-c2cc3nccnc3c(OC[C@@H]3CN(C(N)=O)CCO3)n2)cc1 [Compound 252]
123 | 103 | – | CN1CCOC(COc2nc(-c3ccc(C4CCN(S(C)(=O)=O)CC4)cc3)cc3nccnc23)C1=O (stereo not drawn) [Compound 315]
85 | 25 | 48 | CC(C)(CO)c1ccc(-c2cc3nccnc3c(OC[C@@H]3CN(S(C)(=O)=O)CCO3)n2)cc1 [Compound 288]
129 | 63 | – | CC(C)c1ccc(-c2cc3nccnc3c(OC[C@@H]3CN(C(=O)CO)CCO3)n2)cc1 [Compound 195]
71 | 57 | – | CC(O)c1ccc(-c2cc3nccnc3c(OC[C@@H]3CN(S(C)(=O)=O)CCO3)n2)cc1 (stereo partly drawn) [Compound 213, 1-(4-(5-(((S)-4-(methylsulfonyl)morpholin-2-yl)methoxy)pyrido[3,4-b]pyrazin-7-yl)phenyl)ethanol]
94 | 49 | – | C[C@@H]1CN(c2ccc(-c3cc4nccnc4c(O[C@@H]4CCOC4)n3)cc2)C[C@H](C)O1 [Compound 229]
160 | 63 | – | CC(C)(C)c1ccc(-c2cc3nccnc3c(OC[C@@H]3CN(S(N)(=O)=O)CCO3)n2)cc1 [Compound 257]
60 | 29 | – | Cc1cc(-c2cc3nccnc3c(OC[C@@H]3CNC(=O)C3)n2)ccc1N(C)C [Compound 226]
39 | 28 | – | CC(C)(O)C1CCN(c2ccc(-c3cc4nccnc4c(O[C@@H]4CCOC4)n3)cc2)CC1 [Compound 228]
103 | 48 | – | Cc1cc(-c2cc3nccnc3c(OC[C@@H]3CNC(=O)C3)n2)ccc1N1CCOCC1 [Compound 224]
78 | 61 | – | CC(=O)N1CCO[C@H](COc2nc(-c3ccc4c(c3)CCN4C)cc3nccnc23)C1 [Compound 189]
39 | 11 | – | Cc1cc(-c2cc3nccnc3c(OC[C@@H]3CN(S(N)(=O)=O)CCO3)n2)ccc1N(C)C [Compound 188]
248 | 44 | – | CCC(O)(CC)c1ccc(-c2cc3nccnc3c(OC[C@@H]3CN(S(N)(=O)=O)CCO3)n2)cc1 [Compound 283]
339 | 38 | – | CNC(=O)N1CCO[C@H](COc2nc(-c3ccc(C(C)(C)O)cc3)cc3nccnc23)C1 [Compound 264]
176 | 85 | – | CC(C)(O)Cc1ccc(-c2cc3nccnc3c(OC[C@@H]3CN(S(C)(=O)=O)CCO3)n2)cc1 [Compound 273]
– | 110 | – | CC(=O)N1CCO[C@H](COc2nc(-c3ccc(N4CCNCC4)c(C)c3)cc3nccnc23)C1 [Compound 182]
– | 190 | – | CS(=O)(=O)N1CCN(c2ccc(-c3cc4nccnc4c(O[C@@H]4CCCOC4)n3)cc2)CC1 [Compound 179]
– | 458 | – | CC(=O)N1CCO[C@H](COc2nc(-c3ccc4c(c3)CC(=O)N4C)cc3nccnc23)C1 [Compound 171]
– | 109 | – | CC(Oc1nc(-c2ccc(N(C)C)cc2)cc2nccnc12)C1CN(S(C)(=O)=O)CCO1 (stereo not drawn) [Compound 236]

The next lines start with the compound.

SMILES | IC50 [1, 3] [nM] | IC50 [2] [nM] | IC50 [1, 4] [nM]
CCS(=O)(=O)N1CCC(c2ccc(-c3cc4nccnc4c(OC[C@@H]4CN(C(C)=O)CCO4)n3)cc2)CC1 [Compound 23] | 109 | 62 | –
CN(C)c1ccc(-c2cc3nccnc3c(O[C@@H]3CCOC3)n2)cc1 [Compound 123] | 35 | 30 | –
COc1ccc(-c2cc3nccnc3c(OC[C@@H]3CN(C(N)=O)CCO3)n2)cc1OC [Compound 142, (S)-2-(((7-(3,4-dimethoxyphenyl)pyrido[3,4-b]pyrazin-5-yl)oxy)methyl)morpholine-4-carboxamide] | 950 | 68 | –
CN(C)c1ccc(-c2cc3nccnc3c(OC[C@@H]3CN(C(N)=O)CCO3)n2)cc1Cl [Compound 165] | 95 | 48 | –
NC(=O)N1CCO[C@H](COc2nc(-c3ccc(N4CCOCC4)cc3)cc3nccnc23)C1 [Compound 63] | 342 | 37 | –
O=S(=O)(C1CC1)N1CCO[C@H](COc2nc(-c3ccc(N4CCOCC4)cc3)cc3nccnc23)C1 [Compound 83] | 92 | 74 | –
CN(C)c1ccc(-c2cc3nccnc3c(OC[C@@H]3CN(C(=O)C4CC4)CCO3)n2)cc1 [Compound 69] | 62 | 39 | –
CC(=O)N1CCO[C@H](COc2nc(-c3cc(C)c(N(C)C)c(C)c3)cc3nccnc23)C1 [Compound 161] | 108 | 151 | –
CN(C)c1ccc(-c2cc3nccnc3c(OC[C@@H]3CN(S(C)(=O)=O)CCO3)n2)cc1 [Compound 94] | 22 | 15 | 40
NS(=O)(=O)N1CCO[C@H](COc2nc(-c3ccc(N4CCC(F)(F)CC4)cc3)cc3nccnc23)C1 [Compound 29] | 106 | 66 | –
CN(C)c1ccc(-c2cc3nccnc3c(OC[C@@H]3CN(C(=O)C4CC(F)(F)C4)CCO3)n2)cc1 [Compound 71] | 335 | 127 | –
CS(=O)(=O)N1CCC(c2ccc(-c3cc4nccnc4c(OC[C@@H]4CN(S(C)(=O)=O)CCO4)n3)cc2)CC1 [Compound 57, (S)-4-(methylsulfonyl)-2-((7-(4-(1-(methylsulfonyl)piperidin-4-yl)phenyl)pyrido[4,3-b]pyrazin-5-yloxy)methyl)morpholine] | 82 | 14 | –
O=C(C(F)F)N1CCO[C@H](COc2nc(-c3ccc(N4CCOCC4)cc3)cc3nccnc23)C1 [Compound 61] | 29 | 27 | –
CN(C)c1ccc(-c2cc3nccnc3c(OC[C@@H]3CN(C(=O)CCC#N)CCO3)n2)cc1 [Compound 77] | 202 | 85 | –
CCN(CC)c1ccc(-c2cc3nccnc3c(OC[C@@H]3CN(C(C)=O)CCO3)n2)cc1 [Compound 131] | 39 | 28 | –
C[C@@H]1CN(c2ccc(-c3cc4nccnc4c(OC[C@@H]4CN(S(C)(=O)=O)CCO4)n3)cc2)C[C@H](C)O1 [Compound 19] | 110 | 29 | –
CNC(=O)N1CCO[C@H](COc2nc(-c3ccc(N(C)C)c(Cl)c3)cc3nccnc23)C1 [Compound 166] | 71 | 52 | –
CN1CCN(c2ccc(-c3cc4nccnc4c(OC[C@@H]4CN(S(C)(=O)=O)CCO4)n3)cc2)CC1 [Compound 13] | 40 | 25 | –
CN(C)c1ccc(-c2cc3nccnc3c(OC[C@@H]3CN(C(=O)[C@H]4CC[C@H](O)CC4)CCO3)n2)cc1 [Compound 74] | 186 | 127 | –
CCN(CC)c1ccc(-c2cc3nccnc3c(O[C@@H]3CCOC3)n2)cc1 [Compound 151] | 43 | 44 | –
Cc1cc(-c2cc3nccnc3c(OC[C@@H]3CN(C(N)=O)CCO3)n2)ccc1N(C)C [Compound 163] | 53 | 36 | –
CC(=O)N1CCO[C@H](COc2nc(-c3ccc(N(C)C(C)C)cc3)cc3nccnc23)C1 [Compound 144, (S)-1-(2-(((7-(4-(isopropyl(methyl)amino)phenyl)pyrido[3,4-b]pyrazin-5-yl)oxy)methyl)morpholino)ethanone] | 80 | 57 | –
CS(=O)(=O)N1CCO[C@H](COc2nc(-c3ccc4c(c3)OCO4)cc3nccnc23)C1 [Compound 110] | 163 | 211 | –
CN1CCN(c2ccc(-c3cc4nccnc4c(O[C@@H]4CCOC4)n3)cc2)CC1 [Compound 125] | 43 | 31 | –
CC(=O)N1CCO[C@H](COc2nc(-c3ccc(C(C)C)cc3)cc3nccnc23)C1 [Compound 160] | – | 102 | –
O=C1CCC(COc2nc(-c3ccc(N4CCOCC4)cc3)cc3nccnc23)CN1 (stereo not drawn) [Compound 4, 5-(((7-(4-morpholinophenyl)pyrido[3,4-b]pyrazin-5-yl)oxy)methyl)piperidin-2-one] | – | 160 | –
CN(C)c1ccc(-c2cc3nccnc3c(OC[C@@H]3CN(C(=O)C4CC4(F)F)CCO3)n2)cc1 (stereo partly drawn) [Compound 96] | – | 134 | –
CS(=O)(=O)N1CCO[C@H](COc2nc(-c3ccc(C#N)cc3)cc3nccnc23)C1 [Compound 45] | – | 846 | –
CS(=O)(=O)N1CCO[C@H](COc2nc(-c3ccc(F)cc3)cc3nccnc23)C1 [Compound 44] | – | 324 | –
